The subject of the data set is CCRIS mutagenicity, Ames/micronucleus/aberration tests. As to the kind of experiment: CCRIS mutagenicity studies. To be noted: Test System: AMES SALMONELLA TYPHIMURIUM
The mark [1] stands for this setting: Strain/Indicator: TA98, Metabolic Activation: NONE, Method: PREINCUBATION
Setting [2] is: Strain/Indicator: TA100, Metabolic Activation: NONE, Method: PREINCUBATION

The source made the active and inactive calls. The rule behind the calls is not given here.

Take `CC(C)CNC(=O)C=Cc1ccc([N+](=O)[O-])o1`: under setting [1], the mutagenic call was “active; positive”.
For `Nc1nc(-c2ccc([N+](=O)[O-])cc2)nc2nc[nH]c12`, the mutagenic call reads like this: (Strain/Indicator: TA98(1,8-DNP), Metabolic Activation: NONE, Method: PREINCUBATION) “active; positive”; (Strain/Indicator: TA98(1,8-DNP), Metabolic Activation: RAT, LIVER, S-9, PCB, Method: PREINCUBATION) “active; positive”; (Strain/Indicator: TA98(NR), Metabolic Activation: NONE, Method: PREINCUBATION) “active; positive”; (Strain/Indicator: TA98(NR), Metabolic Activation: RAT, LIVER, S-9, PCB, Method: PREINCUBATION) “active; positive”; under setting [1], “active; positive”; (Strain/Indicator: TA98, Metabolic Activation: RAT, LIVER, S-9, PCB, Method: PREINCUBATION) “active; positive”. Moreover, the mutagenic call is “active; positive” (Strain/Indicator: TA100(1,8-DNP), Metabolic Activation: NONE, Method: PREINCUBATION); “active; positive” (Strain/Indicator: TA100(1,8-DNP), Metabolic Activation: RAT, LIVER, S-9, PCB, Method: PREINCUBATION); “active; positive” (Strain/Indicator: TA100(NR), Metabolic Activation: NONE, Method: PREINCUBATION); “active; positive” (Strain/Indicator: TA100(NR), Metabolic Activation: RAT, LIVER, S-9, PCB, Method: PREINCUBATION); “active; positive” under setting [2]; “active; positive” (Strain/Indicator: TA100, Metabolic Activation: RAT, LIVER, S-9, PCB, Method: PREINCUBATION). Also, the mutagenic call is “active; positive” (Strain/Indicator: YG1020, Metabolic Activation: NONE, Method: PREINCUBATION); “active; positive” (Strain/Indicator: YG1020, Metabolic Activation: RAT, LIVER, S-9, PCB, Method: PREINCUBATION); “active; positive” (Strain/Indicator: YG1021, Metabolic Activation: NONE, Method: PREINCUBATION); “active; positive” (Strain/Indicator: YG1021, Metabolic Activation: RAT, LIVER, S-9, PCB, Method: PREINCUBATION); “active; positive” (Strain/Indicator: YG1024, Metabolic Activation: NONE, Method: PREINCUBATION); “active; positive” (Strain/Indicator: YG1024, Metabolic Activation: RAT, LIVER, S-9, PCB, Method: PREINCUBATION). In addition, the mutagenic call by setting is: (Strain/Indicator: YG1025, Metabolic Activation: NONE, Method: PREINCUBATION) “active; positive”; (Strain/Indicator: YG1025, Metabolic Activation: RAT, LIVER, S-9, PCB, Method: PREINCUBATION) “active; positive”; (Strain/Indicator: YG1026, Metabolic Activation: NONE, Method: PREINCUBATION) “active; positive”; (Strain/Indicator: YG1026, Metabolic Activation: RAT, LIVER, S-9, PCB, Method: PREINCUBATION) “active; positive”; (Strain/Indicator: YG1029, Metabolic Activation: NONE, Method: PREINCUBATION) “active; positive”; (Strain/Indicator: YG1029, Metabolic Activation: RAT, LIVER, S-9, PCB, Method: PREINCUBATION) “active; positive”.
`CCOP(=S)(OCC)SCSC(C)(C)C`: the mutagenic call (Strain/Indicator: TA98, Metabolic Activation: HAMSTER, LIVER, S-9, AROCLOR 1254 (10%), Method: PREINCUBATION) was “inactive; negative”; the mutagenic call under setting [1] was “inactive; negative”; the mutagenic call (Strain/Indicator: TA98, Metabolic Activation: RAT, LIVER, S-9, AROCLOR 1254 (10%), Method: PREINCUBATION) was “inactive; negative”; the mutagenic call (Strain/Indicator: TA100, Metabolic Activation: HAMSTER, LIVER, S-9, AROCLOR 1254 (10%), Method: PREINCUBATION) was “inactive; negative”; the mutagenic call under setting [2] was “inactive; negative”; the mutagenic call (Strain/Indicator: TA100, Metabolic Activation: RAT, LIVER, S-9, AROCLOR 1254 (10%), Method: PREINCUBATION) is “inactive; negative”. The mutagenic call is “inactive; negative” (Strain/Indicator: TA1535, Metabolic Activation: HAMSTER, LIVER, S-9, AROCLOR 1254 (10%), Method: PREINCUBATION); “inactive; negative” (Strain/Indicator: TA1535, Metabolic Activation: NONE, Method: PREINCUBATION); “inactive; negative” (Strain/Indicator: TA1535, Metabolic Activation: RAT, LIVER, S-9, AROCLOR 1254 (10%), Method: PREINCUBATION); “inactive; negative” (Strain/Indicator: TA1537, Metabolic Activation: HAMSTER, LIVER, S-9, AROCLOR 1254 (10%), Method: PREINCUBATION); “inactive; negative” (Strain/Indicator: TA1537, Metabolic Activation: NONE, Method: PREINCUBATION); “inactive; negative” (Strain/Indicator: TA1537, Metabolic Activation: RAT, LIVER, S-9, AROCLOR 1254 (10%), Method: PREINCUBATION).
`[N-]=[N+]=NCC[C@H](N)C(=O)O`: where the note is “Strain/Indicator: TA1530, Metabolic Activation: NONE, Method: STANDARD PLATE”, the mutagenic call was “active; positive”.
As for `CCc1c2ccccc2cc2c1ccc1ccccc12`, the mutagenic call runs as follows: (Strain/Indicator: TA98, Method: STANDARD PLATE) “active; positive”; (Strain/Indicator: TA100, Metabolic Activation: RAT, LIVER, S-9, PHENOBARBITAL, Method: STANDARD PLATE) “inactive; negative”; (Strain/Indicator: TA100, Method: STANDARD PLATE) “active; positive”.

Source of the values: PubChem BioAssay AID1259407 (Chemical Carcinogenesis Research Information System (CCRIS), 2018).
